Measurements: article PMC11091072, “Targeting bacterial nickel transport with aspergillomarasmine A suppresses virulence-associated Ni-dependent enzymes” (Nature Communications, 2024)

Tests used:
[1] = AMA affinity for Zn2+; type: binding; settings: PAR-based competition assay, authors' reply to reviewer; read-out: Kd for Zn (typical drift)
[2] = system: K. pneumoniae urease activity (whole cell); experiment: Checkerboard analysis of Zn-AMA and AHA on urease activity; type: cell-based, Klebsiella pneumoniae
Experimental: To guide our exploration of the mode of action of Zn-AMA, we investigated whether a chemical-chemical interaction occurs with the urease inhibitor AHA. […] We subsequently performed inductively coupled plasma mass spectrometry (ICP-MS) analyses to evaluate the intracellular Ni^2+ and Zn^2+ content of K. pneumoniae.
K. pneumoniae whole-cell urease activity was determined with artificial urine containing 0.2% (w/v) casamino acids and 0.01% (w/v) phenol red in 96-well plates. For the growth of S. aureus in artificial urine, the medium was supplemented with 10% LB. After 20–24 hours of growth, bacteria were removed using 0.45 μm filter plates, and the final A550 of the medium was measured using a plate reader.
FIG S7 Evaluation of Zn-AMA as a direct inhibitor of urease. A) Checkerboard analysis of Zn-AMA and AHA on urease activity of K.
pneumoniae after growth for 24 h at 37 °C artificial urine. pH is represented by the color scale determined with phenol red. […]

[3] = system: Hyd-3; experiment: [NiFe] hydrogenase zymography; type: cell-based, Escherichia coli BW25113; settings: 150 µM, E. coli, 100% H2
Experimental: As described for whole-cell hydrogenase assays, E. coli BW25113 cultures (2 mL) in eight-well cell culture plates were grown under anaerobic conditions. The cells were harvested by centrifugation, resuspended in PBS, and lysed by sonication. Cell debris was removed by centrifugation (21,000 × g, 5 min), and Triton X-100 was added to a final concentration of 1%.
[NiFe] hydrogenase zymograms were
performed using E. coli grown in LB-glucose supplemented with 0.5 µM NiCl2 for 24h at 37 °C under anaerobic conditions. The E. coli
Triton X-100 (5% v/v) solubilized membranes were
mg/mL benzyl viologen and 1 mg/mL tetrazolium chloride under 100% H2 gas.

[4] = system: S. aureus biofilm; experiment: Polystyrene microtiter biofilm assay (crystal violet); type: cell-based, Staphylococcus aureus USA300; settings: artificial urine or M9
Experimental: Biofilm assays to assess the effect of Zn-AMA were adapted from a previously described method. Overnight cultures of K. pneumoniae or S. aureus USA300 were diluted in sterile saline (NaCl, 0.9% w/v) to an OD600 of 0.1 and diluted 1/200 in either M9-Cas, or artificial urine. Two-fold dilutions of Zn-AMA were added to the cells in a 96-well round-bottom microtiter plate, and the cells were grown at 37 °C for 18 hours in a static incubator. Following incubation, the microtiter plates were agitated on an orbital shaker (300 rpm, 2 min), the planktonic cells were transferred to a fresh plate, and their OD600 was quantified. The biofilms were washed three times with deionized water, air-dried, and stained with 0.1% crystal violet for 15 min. Excess crystal violet was removed, the plates were washed with deionized water three times, and they were air-dried for 1 hour. The crystal violet-stained biofilms were solubilized in 33% acetic acid (100 μL) for 5 min, and the absorbance (600 nm) was measured. Experiments were performed in four replicates, and absorbance measurements were performed in a BioTek Synergy H1 plate reader.

SMILES: N[C@@H](CN[C@@H](CN[C@@H](CC(=O)O)C(=O)O)C(=O)O)C(=O)O [AMA, aspergillomarasmine A]
- Kd [1]: 0.1 to 0.2 nM

SMILES: N[C@@H](CN[C@@H](CN[C@@H](CC(=O)O)C(=O)O)C(=O)O)C(=O)O.[Zn+2] [Zn-AMA]
- Urease-dependent pH change (pH) ([2]; Zn-AMA 0.39 μM, AHA 0 mM): 8.26
- Urease-dependent pH change (pH) ([2]; Zn-AMA 0.39 μM, AHA 0.1 mM): 8.14
- Urease-dependent pH change (pH) ([2]; Zn-AMA 0.39 μM, AHA 0.2 mM): 8.05
- Urease-dependent pH change (pH) ([2]; Zn-AMA 0.39 μM, AHA 0.4 mM): 7.76
- Urease-dependent pH change (pH) ([2]; Zn-AMA 0.39 μM, AHA 0.5 mM): 8.22
- Urease-dependent pH change (pH) ([2]; Zn-AMA 0.39 μM, AHA 0.8 mM): 7.29
- Urease-dependent pH change (pH) ([2]; Zn-AMA 0.39 μM, AHA 1.6 mM): 6.70
- Urease-dependent pH change (pH) ([2]; Zn-AMA 0.78 μM, AHA 0 mM): 8.08
- Urease-dependent pH change (pH) ([2]; Zn-AMA 0.78 μM, AHA 0.1 mM): 7.95
- Urease-dependent pH change (pH) ([2]; Zn-AMA 0.78 μM, AHA 0.2 mM): 7.81
- Urease-dependent pH change (pH) ([2]; Zn-AMA 0.78 μM, AHA 0.4 mM): 7.50
- Urease-dependent pH change (pH) ([2]; Zn-AMA 0.78 μM, AHA 0.5 mM): 8.01
- Urease-dependent pH change (pH) ([2]; Zn-AMA 0.78 μM, AHA 0.8 mM): 7.03
- Urease-dependent pH change (pH) ([2]; Zn-AMA 0.78 μM, AHA 1.6 mM): 6.68
- Urease-dependent pH change (pH) ([2]; Zn-AMA 1.56 μM, AHA 0 mM): 7.83
- Urease-dependent pH change (pH) ([2]; Zn-AMA 1.56 μM, AHA 0.1 mM): 7.46
- Urease-dependent pH change (pH) ([2]; Zn-AMA 1.56 μM, AHA 0.2 mM): 7.19
- Urease-dependent pH change (pH) ([2]; Zn-AMA 1.56 μM, AHA 0.4 mM): 6.86
- Urease-dependent pH change (pH) ([2]; Zn-AMA 1.56 μM, AHA 0.5 mM): 7.51
- Urease-dependent pH change (pH) ([2]; Zn-AMA 1.56 μM, AHA 0.8 mM): 6.64
- Urease-dependent pH change (pH) ([2]; Zn-AMA 1.56 μM, AHA 1.6 mM): 6.51
- Urease-dependent pH change (pH) ([2]; Zn-AMA 3.12 μM, AHA 0 mM): 7.23
- Urease-dependent pH change (pH) ([2]; Zn-AMA 3.12 μM, AHA 0.1 mM): 6.85
- Urease-dependent pH change (pH) ([2]; Zn-AMA 3.12 μM, AHA 0.2 mM): 6.78
- Urease-dependent pH change (pH) ([2]; Zn-AMA 3.12 μM, AHA 0.4 mM): 6.74
- Urease-dependent pH change (pH) ([2]; Zn-AMA 3.12 μM, AHA 0.5 mM): 6.97
- Urease-dependent pH change (pH) ([2]; Zn-AMA 3.12 μM, AHA 0.8 mM): 6.56
- Urease-dependent pH change (pH) ([2]; Zn-AMA 3.12 μM, AHA 1.6 mM): 6.46
- Urease-dependent pH change (pH) ([2]; Zn-AMA 6.25 μM, AHA 0 mM): 6.63
- Urease-dependent pH change (pH) ([2]; Zn-AMA 6.25 μM, AHA 0.1 mM): 6.57
- Urease-dependent pH change (pH) ([2]; Zn-AMA 6.25 μM, AHA 0.2 mM): 6.55
- Urease-dependent pH change (pH) ([2]; Zn-AMA 6.25 μM, AHA 0.4 mM): 6.53
- Urease-dependent pH change (pH) ([2]; Zn-AMA 6.25 μM, AHA 0.5 mM): 6.62
- Urease-dependent pH change (pH) ([2]; Zn-AMA 6.25 μM, AHA 0.8 mM): 6.47
- Urease-dependent pH change (pH) ([2]; Zn-AMA 6.25 μM, AHA 1.6 mM): 6.42
- Urease-dependent pH change (pH) ([2]; Zn-AMA 12.5 μM, AHA 0 mM): 6.63
- Urease-dependent pH change (pH) ([2]; Zn-AMA 12.5 μM, AHA 0.1 mM): 6.46
- Urease-dependent pH change (pH) ([2]; Zn-AMA 12.5 μM, AHA 0.2 mM): 6.52
- Urease-dependent pH change (pH) ([2]; Zn-AMA 12.5 μM, AHA 0.4 mM): 6.45
- Urease-dependent pH change (pH) ([2]; Zn-AMA 12.5 μM, AHA 0.5 mM): 6.47
- Urease-dependent pH change (pH) ([2]; Zn-AMA 12.5 μM, AHA 0.8 mM): 6.43
- Urease-dependent pH change (pH) ([2]; Zn-AMA 12.5 μM, AHA 1.6 mM): 6.40
- interaction with AHA (checkerboard) ([2]; combination of Zn-AMA and AHA): synergistic
- Hyd-3 activity by zymography [3]: Suppression of Hyd-3 activity
- effect on biofilm production [4]: anti-biofilm activity was not observed
